Data as given in the supplement of paper PMC10307832.

How the values were obtained:
Test in all cases: relative viability (nuclei count vs DMSO), 5 days (fraction); higher = more cells survive
[1] = compound: CCn1c(-c2nonc2N)nc2c(C#CC(C)(C)O)ncc(OC[C@H]3CCCNC3)c21 + CC1(C)CCC(c2ccc(Cl)cc2)=C(CN2CCN(c3ccc(C(=O)NS(=O)(=O)c4ccc(N[C@H](CCN5CCOCC5)CSc5ccccc5)c(S(=O)(=O)C(F)(F)F)c4)cc3)CC2)C1 [Navitoclax] (partner 0.5 µM)
Method in brief: (§1)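 Each reported value is a median over duplicate plates. It expresses relative viability: treated-well nuclei count divided by vehicle-well nuclei count. Lung cancer cell lines in 1536-well plates were dosed by pin tool a day after seeding, alone with one drug or with a fixed anchor-drug dose plus five library-drug doses (not always all listed) in √10 steps, and nuclei were counted after 5 days.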

[2] = compound: CCn1c(-c2nonc2N)nc2c(C#CC(C)(C)O)ncc(OC[C@H]3CCCNC3)c21 + C[C@@H](Oc1cc(-c2cnn(C3CCNCC3)c2)cnc1N)c1c(Cl)ccc(F)c1Cl [Crizotinib] (partner 1 µM)
Method in brief: as §1

[3] = compound: CCn1c(-c2nonc2N)nc2c(C#CC(C)(C)O)ncc(OC[C@H]3CCCNC3)c21 + Nc1nc2[nH]cc(CCc3ccc(C(=O)N[C@@H](CCC(=O)O)C(=O)O)cc3)c2c(=O)[nH]1 [Pemetrexed] (partner 0.2 µM)
Method in brief: as §1

BAM7 + Tozasertib = compound: CCOC1=CC=CC=C1N=NC2=C(NN(C2=O)C3=NC(=CS3)C4=CC=CC=C4)C [BAM7] + Cc1cc(Nc2cc(N3CCN(C)CC3)nc(Sc3ccc(NC(=O)C4CC4)cc3)n2)n[nH]1 [Tozasertib] (partner 0.1 µM)
Method in brief: as §1

Cell Line	relative viability ([1]; first compound 0.01 µM)	relative viability ([1]; first compound 0.03162 µM)	relative viability ([1]; first compound 0.1 µM)	relative viability ([1]; first compound 0.3162 µM)	relative viability ([1]; first compound 1 µM)	relative viability ([2]; first compound 0.01 µM)	relative viability ([2]; first compound 0.03162 µM)	relative viability ([2]; first compound 0.1 µM)	relative viability ([2]; first compound 0.3162 µM)	relative viability ([2]; first compound 1 µM)	relative viability ([3]; first compound 0.01 µM)	relative viability ([3]; first compound 0.03162 µM)	relative viability ([3]; first compound 0.1 µM)	relative viability ([3]; first compound 0.3162 µM)	relative viability ([3]; first compound 1 µM)	relative viability (BAM7 + Tozasertib; first compound 0.5 µM)	relative viability (BAM7 + Tozasertib; first compound 5 µM)	relative viability (BAM7 + Tozasertib; first compound 15.81 µM)	relative viability (BAM7 + Tozasertib; first compound 50 µM)
NCI-H2170	0.613	0.585	0.64	0.493	0.529	1.16	1.26	1.1	1.15	1.24	0.278	0.286	0.266	0.271	0.234	0.664	0.748	0.501	0.793
NCI-H2085	1.12	1.09	1.1	1.08	1.07	0.882	0.882	0.802	0.817	0.749	0.934	0.88	0.914	0.873	0.992	0.608	0.496	0.401	0.567
SW 1573	0.895	0.859	0.934	0.943	0.735	0.699	0.767	0.734	0.762	0.704	0.772	0.773	0.765	0.646	0.736	0.213	0.174	0.165	0.191
NCI-H441	0.48	0.626	0.591	0.65	0.556	0.676	0.621	0.708	0.586	0.728	0.295	0.251	0.228	0.234	0.272	0.643	0.562	0.526	0.627
